Assay results as given in patent publication US5214053A, “Thiourea derivatives and antimicrobial agent and antiulcer agent containing the same” (Terumo Kabushiki Kaisha, priority 1991, dated 1993).
Converted amounts (≈) assume the structure as drawn. Where two headings read alike, the source gives them in different places.

Experiments:
[1] = test system: peptic ulcer induced by water immersion restrain stress; assay: Inhibitory action against peptic ulcer induced by water immersion restrain stress; format: in vivo, SD male rats; details: Rattus norvegicus, read-out: Inhibitory action against stress peptic ulcer, percent inhibition of peptic ulcer formation
Procedure: Inhibitory Action Against Peptic Ulcer Induced By Water Immersion Restrain Stress
SD male rats (weighing 200-300 g) were fasted for 24 hours before oral administration of a thiourea derivative of the invention at a dose of 32 mg/kg bodyweight. One hour later, the animal was put in a stress cage and loaded with water immersion restraint stress in a water bath at 23° C.
Seven hours after loading with the stress, the rat was sacrificed with ether, and the stomach was excised and treated with formalin. Area (mm^2) of the lesions developed in the glandular stomach area was then measured. Results were expressed in sum of the lesions per animal which was referred to as peptic ulcer index.
Percent inhibition of the peptic ulcer formation (%) as shown in the table was calculated according to the following equation: [formula]

ethanol peptic ulcer = assay: Inhibitory action against ethanol peptic ulcer; format: in vivo, SD male rats; details: Rattus norvegicus, read-out: Inhibitory action against ethanol peptic ulcer, percent inhibition of peptic ulcer formation
Procedure: Inhibitory Action Against Ethanol Peptic Ulcer
SD male rats (weighing 200-300 g) were fasted for 24 hours before oral administration of a thiourea derivative of the invention at a dose of 32 mg/kg bodyweight. One hour later, ethanol was orally given in a volume of 0.5 ml/100 g bodyweight. One hour after administering ethanol, the rat was sacrificed with ether, and the stomach was excised and treated with formalin. Area (mm^2) of the lesions developed in the glandular stomach area was then measured. Results were expressed in sum of the lesions per animal which was referred to as peptic ulcer index.
Percent inhibition of the peptic ulcer formation (%) as shown in the table was calculated according to the same equation as mentioned above.

Helicobacter pylori = assay: Antimicrobial activity against Helicobacter pylori (MIC); format: cell-based, Helicobacter pylori strain NCTC 11916
Procedure: Antimicrobial Activity Against Helicobacter Pylori
Antimicorbial activity of the thiourea derivatives according to the invention against Helicobacter pylori (or Campylobacter pylori) was evaluated by employing strain NCTC 11916 as a Helicobacter test organism and determining MIC (minimum inhibitory concentration) of the thiourea derivative against Helicobacter pylori.
The Helicobacter pylori was pre-incubated in a plate medium for 3-5 days. […] These antibiotics were contained for inhibition of the growth of microorganisms with than Helicobacter pylori.
The Helicobacter pylori pre-incubated under slightly aerobic conditions (an O2 concentration of about 5%) at 37° C. for 3-5 days was suspended in a physiological saline solution in a concentration of approximately 10^8 organisms/ml. Approximately 10-20 μl of the suspension was inoculated on a medium for MIC measurement in cross streaks. […] The DMSO solution was formed by the twofold dilution method using sterilized distilled water. As in the pre-incubation, the Helicobacter pylori was cultured under slightly aerobic conditions at 37° C. for 3-5 days. After completion of the culture, growth of the microorganisms on the streaks was visually determined. […] The MIC of cemetidine, an antagonist to histamine was also measured for comparison.

[2] = SD male rats, oral, 32 mg/kg, 1 hour before stress, lesions measured 7 hours after loading with the stress
[3] = SD male rats, oral, 32 mg/kg, 1 hour before ethanol (0.5 ml/100 g), lesions measured 1 hour after ethanol
[4] = NCTC11916, strain NCTC 11916, Mueller-Hinton agar with horse hemolysis solution, 37° C., 3-5 days, slightly aerobic (O2 about 5%), read-out: Antimicrobial activity against Helicobacter pylori, MIC (minimum inhibitory concentration)

CNC(=NC#N)NCCSCc1nc[nH]c1C [Cemetidine, reference compound]
inhibition in vivo at 32 mg/kg ([1]; po, 7 h): 64%
inhibition in vivo at 32 mg/kg (ethanol peptic ulcer; po, 1 h): 16%
MIC (Helicobacter pylori; NCTC11916, read-out: Antimicrobial activity against Helicobacter pylori, MIC (minimum inhibitory concentration)): ≥ 400 µg/mL

O=C(CCCNC(=S)Nc1ccc2c(c1)OCO2)NCCCOc1cccc(CN2CCCCC2)c1 [Example 1, 1-[3-[N-[3-[3(piperidinomethyl)phenoxy]propyl]carbamoyl]propyl]-3-[(3,4methylenedioxy)phenyl] thiourea]
inhibition in vivo at 32 mg/kg [1, 2]: 80%
inhibition in vivo at 32 mg/kg (ethanol peptic ulcer; [3]): 67%
MIC (Helicobacter pylori; [4]): 6.25 µg/mL (≈ 12.2 µM)

O=C(CCCNC(=S)Nc1ccc2c(c1)OCCO2)NCCCOc1cccc(CN2CCCCC2)c1 [Example 2, 1-[3-[N-[3-[3-(piperidinomethy)phenoxy]propyl]carbamoyl]propyl]-3-[(3,4-ethylenedioxy)phenyl]thiourea]
inhibition in vivo at 32 mg/kg [1, 2]: 76%
inhibition in vivo at 32 mg/kg (ethanol peptic ulcer; [3]): 66%
MIC (Helicobacter pylori; [4]): 6.25 µg/mL (≈ 11.9 µM)

O=C(CCCNC(=S)Nc1ccc2c(c1)OCO2)NCCCOc1cccc(CN2CCCC2)c1 [Example 3, 1-[3-[N-[3-[3-(pyrrolidinomethyl)phenoxy]propyl]carbamoyl]propyl]-3-[(3,4-methylenedioxy)phenyl]-thiourea]
inhibition in vivo at 32 mg/kg [1, 2]: 68%
inhibition in vivo at 32 mg/kg (ethanol peptic ulcer; [3]): 61%
MIC (Helicobacter pylori; [4]): 6.25 µg/mL (≈ 12.5 µM)

CC1CCCN(Cc2cccc(OCCCNC(=O)CCCNC(=S)Nc3ccc4c(c3)OCO4)c2)C1 (stereo not drawn) [Example 4, 1-[3-[N-[3-[3((3-methylpiperidino)methyl)phenoxy]propyl]carbamoyl]propyl]-3-[(3,4-methylenedioxy)phenyl]thiourea]
inhibition in vivo at 32 mg/kg [1, 2]: 77%
inhibition in vivo at 32 mg/kg (ethanol peptic ulcer; [3]): 71%
MIC (Helicobacter pylori; [4]): 6.25 µg/mL (≈ 11.9 µM)

CCN(CC)Cc1cccc(OCCCNC(=O)CCCNC(=S)Nc2ccc3c(c2)OCO3)c1 [Example 5, 1-[3-[N-[3-[3-(diethylaminomethyl)phenoxy]propyl]carbamoyl]propyl]-3-[(3,4-methylenedioxy)phenyl]thiourea]
inhibition in vivo at 32 mg/kg [1, 2]: 62%
inhibition in vivo at 32 mg/kg (ethanol peptic ulcer; [3]): 52%
MIC (Helicobacter pylori; [4]): 12.5 µg/mL (≈ 25 µM)

O=C(CCCCCNC(=S)Nc1ccc2c(c1)OCO2)NCCCOc1cccc(CN2CCCCC2)c1 [Example 6]
inhibition in vivo at 32 mg/kg [1, 2]: 65%
inhibition in vivo at 32 mg/kg (ethanol peptic ulcer; [3]): 70%
MIC (Helicobacter pylori; [4]): 6.25 µg/mL (≈ 11.6 µM)

O=C(CCCNC(=S)Nc1ccc2c(c1)OCO2)NCCCOc1cc(CN2CCCCC2)ccn1 [Example 7]
inhibition in vivo at 32 mg/kg [1, 2]: 78%
inhibition in vivo at 32 mg/kg (ethanol peptic ulcer; [3]): 63%
MIC (Helicobacter pylori; [4]): 6.25 µg/mL (≈ 12.2 µM)

O=C(CCCNC(=S)NCc1ccc2c(c1)OCO2)NCCCOc1cccc(CN2CCCCC2)c1 [Example 8]
inhibition in vivo at 32 mg/kg [1, 2]: 82%
inhibition in vivo at 32 mg/kg (ethanol peptic ulcer; [3]): 78%
MIC (Helicobacter pylori; [4]): 6.25 µg/mL (≈ 11.9 µM)
